In patent EP3222276B1, “PHARMACEUTICAL COMPOSITION FOR TREATING CANCER AND BIOMARKER FOR DRUG SCREENING” (National Defense Medical Center, priority 2014, dated 2016):

Key:
[1] = tested on: ACHN cells; test: SRB assay of cell survival / growth inhibition; assay type: cell-based, Human; conditions: 5 µM sorafenib or 10 µM GW5074 alone, or both combined (GW5074 30 minutes before sorafenib); 24 hours
Description: Human renal carcinoma (ACHN) cells were cultured in Eagle MEM (Minimum Essential Medium) with 10% FBS (Fetal Bovine Serum) and 1% penicillin/streptomycin. Sulforhodamine B (SRB) is a negative […] with a sulfonic acid group and binds to basic amino acids of intracellular proteins in weak acidic conditions. The SRB […] was extracted from cells using weak alkaline solution and then subjected to absorbance measurement. The amount of intracellular proteins, which is an indicator for cell survival, can be calculated from the amount of SRB.

[2] = tested on: ACHN cells; test: ACHN xenograft in immunodeficient mice, tumor volume; assay type: in vivo; conditions: 5 mg/kg sorafenib oral, 10 mg/kg GW5074 s.c., alone or combined; once a day for three weeks; n=8
Description: Six-week old immnunodeficient male mice (BALB/cAnN.Cg-Foxn1^nu/CrlNarl) with an average weight of 20 grams were xenografted with 1x10^7 ACHN cells to the right by […]. The mice were maintained in a specific pathogen-free (SPF) environment. The size of tumor was measured using a digital caliper twice a week and tumor volume was calculated by the equation of length^∗width^∗height^∗0.5. […] A total of four groups were included in the experiment: a control group which received only vehicle (DMSO), […], 25 mg/kg GW5074, […], respectively, with 8 mice in each group.

[3] = tested on: Luc-ACHN-LL cells; test: Orthotopic metastasis model of renal carcinoma, IVIS photon signal and survival; assay type: in vivo, mice; conditions: for death within, following injection of cancer cells: 10 mg/kg sorafenib alone or 25 mg/kg GW5074 alone
Description: To simulate clinical phenomenon, we established an orthotopic spontaneous animal model for studying metastasis of renal carcinoma. First, ACHN cells were transfected with the luciferase gene and the resultamt Luc-ACHN transfectants (stable transfectants which express the luciferase) with different expression levels were then selected for in vivo culture in mice by subcutaneous injection. Six-week old and shaved mice were subcutaneously injected with 1×10^7 Luc-ACHN cells In 0.1 ml PBS. Two months after the injection, the mice were sacrificed and their kidneys, livers, regional lymph nodes as well as other organs were collected for assessing tumor cells that were potentially metastatic, which was confirmed by hematoxylin-eosin (H&E) staining. Tumor cell lines that are highly metastatic were dissected in 1 ml PBS into small pieces aseptically and then cultured in MEM media containing 10% FBS (fetal bovine serum) and 1% penicillin/streptomycin following centrifugation. A few days later, monoclonal cell lines were first treated with the trypsin to dissociate the cells and then cultured in vitro. The cells obtained from liver tumor tissues were named ACHN-L. The metastatic potential of various monoclonal cell lines collected from different organs was further analyzed by xenografting these tumor cells to the left kidneys of mice. The xenografted mice were sacrificed and examined 8 weeks after the injection of tumor cells. The tumor growth observed in each organ was investigated through visual examination and histology procedures. The metastatic cells found in the liver were dissected into small pieces aseptically and cultured in vitro. The cells obtained from liver tumor tissues were named ACHN-L (subcutaneous injection) cells and the cells collected from the metastatic lesions after injection of ACHN-L cells to the left kidneys were called ACHN-LL cells. The same procedure using orthotopic xenograft of ACHN-LL cells and liver metastatic cells was repeated twice to select for highly metastatic tumors. The cancer cell line (Luc-ACHN-LL), which is highly metastatic and causes high mortality, was selected. Immunodeficient male mice was injected with 3×10^5 Luc-ACHN-LL cells in 50 µL PBS at the right renal capsule. The in vivo luciferase activity was examined every day for up to three weeks so as to assure that there were no leakage of cancer cells at the kidneys immediately after the injection and to monitor the metastasis of these cancer cells. Two to five minutes before utilizing the IVIS Xenogene system, 75 mg/kg D-Luciferin (Xenogen) in PBS was injected to the retro-orbital sinus of each mouse. […]

[4] = tested on: ACHN cells; test: Annexin V-FITC / propidium iodide flow cytometry for apoptosis or necrosis; assay type: cell-based, Human; conditions: 5 µM sorafenib, 10 µM GW5074 or both; 24 hours; n=4
Description: (§1) The combination therapy of sorafenib and GW5074 induces cell necrosis through the dephosphorylation of the death-associated DAPK at serine 308 followed by dissociation from proto-oncogene c-Raf. Cells were cultured as described in example 1, washed with phosphate buffered saline (PBS), and stained with the annexin V-FITC and propidium iodide (PI) for 15 minutes. The presence of fluorescent Annexin V as well as propidium iodide (PI) was detected by flow cytometry so as to determine whether the cell death is caused by apoptosis or necrosis. The expression of c-Raf and DAPK as well as the phosphorylation level of DAPK were examined by Western blot and immunoprecipitation using antibodies. Anti-DAPK antibodies or non-immune rabbit IgG (IP: immunoglobulin) were included as negative controls, and cell survival was measured by SRB assay, as shown In example 1. In this experiment, ACHN cells were treated separately with DMSO (as a control group), 5 µM sorafenib, 10 µM GW5074, or the combination therapy of 5 µM sorafenib and 10 µM GW5074 for 24 hours.

[5] = tested on: pDAPK^S308; test: Western blot of DAPK S308 phosphorylation in ACHN cells; assay type: cell-based, Human; conditions: various concentrations, only when provided 30 minutes prior to the combination drugs
Description: as §1

Structure (SMILES): CNC(=O)c1cc(Oc2ccc(NC(=O)Nc3ccc(Cl)c(C(F)(F)F)c3)cc2)ccn1 [sorafenib]
- growth inhibition of cells [1]: no growth inhibition
- inhibition effect on xenografted tumor growth (tumor volume) [2]: nearly no inhibition effect
- death within, following injection of cancer cells [3]: ≤ 8 weeks
- body weight ([3]; high-dose 60 mg/kg sorafenib): loss of weight
- death within ([3]; high-dose 60 mg/kg sorafenib): ≤ 10 weeks
- average cell necrosis rate [4]: 0.77%

Structure (SMILES): C=C1[C@@H](O)[C@@H]2O[C@]3(CC[C@H](/C=C/[C@@H](C)[C@@H]4CC(C)=C[C@@]5(O[C@H](C[C@@](C)(O)C(=O)O)CC[C@H]5O)O4)O3)CC[C@H]2O[C@@H]1[C@@H](O)C[C@H](C)[C@H]1O[C@@]2(CCCCO2)CC[C@H]1C [Okadaic acid]
- inhibition of dephosphorylation of pDAPK^S308 and growth of ACHN cells [5]: effective

Structure (SMILES): O=C1Nc2ccc(I)cc2C1=Cc1cc(Br)c(O)c(Br)c1 [GW5074, 3-(3,5-Dibromo-4-hydroxy-benzylidene)-5-iodo-1,3-dihydro-indol-2-one]
- growth inhibition of cells [1]: no growth inhibition
- inhibition effect on xenografted tumor growth (tumor volume) [2]: nearly no inhibition effect
- death within, following injection of cancer cells [3]: ≤ 5 weeks
- average cell necrosis rate [4]: 1.35%
